US10111901B2, “Beta-glucan in combination with anti-cancer agents affecting the tumor microenvironment” (Biothera, Inc., priority 2014, dated 2018)

Tests used:
CD4 T cells [1] = test: MCM-CD4 T cell proliferation and surface marker study; assay type: cell-based, human
Method: For MCM-CD4 T cell proliferation study, CD3 & CD28-stimulated, CFSE-labeled CD4 T cells were cultured with 50% MCM. T cell proliferation was measured on day 11 as described above. Culture supernatants of the MCM-CD4 T cell co-culture were collected for subsequent cytokine analysis. MCM-CD4 T cell surface marker evaluation was performed as described above.
To determine whether soluble factors secreted from β-glucan-treated M2 macrophages are required, measurements were carried out of CD4 T cell proliferation co-cultured with β-glucan-treated M2 macrophages MCM (50% of volume) and surface activation marker modulation on T cells incubated with the MCM were observed. FIG. 9 is representative of 2 different experiments. […] In addition, the CD4 T cells cultured in vehicle- and β-glucan-treated M2 macrophage MCM were evaluated for modulation of co-stimulatory or co-inhibitory molecules (CD80, CD28, CTLA-4, 4-1BB and PD-1).
To test this, M2 macrophages were prepared as described above with a few modifications. The whole blood of a low binder was spun down to remove the plasma and then the cells were reconstituted with serum obtained from a high binder. The reconstituted blood was treated with vehicle or β-glucan (25 μg/mL) for 2 hours at 37° C. The monocytes were evaluated for binding by using anti-β-glucan specific monoclonal antibody and subsequent flow cytometry.

CD4 T cells [2] = test: Mac-CD4 T co-culture surface marker modulation on T cells; assay type: cell-based, human
Method: For evaluation of Mac-CD4 T cell surface marker modulation, M2 macrophages were co-cultured with T cells as described above and cells were harvested on day 8, day 9 and day 10 to perform surface receptor staining on both M2 macrophages and T cells.
Changes in surface marker expression on both macrophages and CD3 & CD28-stimulated T cells were also measured. Vehicle- and β-glucan-treated M2 macrophages and CD T cells from the co-cultures were evaluated by flow cytometry for the modulation of co-stimulatory or co-inhibitory molecules. FIG. 8C and Table 9 are representative results from 2 different experiments.

[3] = T cells co-cultured with β-glucan-treated M2 macrophages relative to vehicle-treated

β(1,6)-[poly-(1,3)-D-glucopyranosyl]-poly-β(1,3)-D-glucopyranose [β-glucan]
T cell markers (CD80, CD28, CTLA-4, 4-1BB and PD-1) (CD4 T cells [1]; CD4 T cells cultured in β-glucan-treated M2 macrophage MCM (data not shown)): no change
CD4 T cell proliferation (CD4 T cells [1]; MCM of M2 macrophages of a low binder crossed-over with high binder's serum, 25 μg/mL): significantly higher ability to enhance
CD4 T cell proliferation (CD4 T cells [1]; β-glucan-treated M2 macrophage MCM (50% of volume) vs vehicle-treated MCM): significantly higher ability to enhance
Change in MFI on T cells: 4-1BB (CD4 T cells [2]; [3]): No change
Change in MFI on T cells: CD28 (CD4 T cells [2]; [3]): No change
Change in MFI on T cells: CD40L (CD4 T cells [2]; [3]): No change
Change in MFI on T cells: CTLA-4 (CD4 T cells [2]; [3]): No change
Change in MFI on T cells: PD1 (CD279) (CD4 T cells [2]; T cells co-cultured with β-glucan-treated M2 macrophages relative to vehicle-treated (day 9)): Increase
